Where a SMILES comes first, the peptide text is derived from it. [ ]: non-standard residue; d: D form. Phe(3-Me) = Cc1cccc(C[C@H](N)C(=O)O)c1 A value given as a limit tells only on which side of the number the result lay.

One may read the IC50 as the point on the concentration scale where inhibition reaches its midpoint.

Chain of interaction between GST-MAGEA11 MHD and FAM-PCF11_4 peptide (MAGE-A11:PCF11) (P43364 218-429): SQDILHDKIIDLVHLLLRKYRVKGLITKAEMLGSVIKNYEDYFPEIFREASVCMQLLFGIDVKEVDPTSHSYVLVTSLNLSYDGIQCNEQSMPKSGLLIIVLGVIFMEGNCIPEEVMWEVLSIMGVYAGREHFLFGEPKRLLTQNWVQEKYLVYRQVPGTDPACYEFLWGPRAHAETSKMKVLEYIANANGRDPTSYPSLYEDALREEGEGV

For one assay, the target named is interaction between GST-MAGEA11 MHD and FAM-PCF11_4 peptide (MAGE-A11:PCF11) (Homo sapiens (Human), UniProt P43364). Kind of assay: TR-FRET dose response competition assay for disruption of MAGE-A11:PCF11 binding. The settings on record: Dose response TR-FRET screening of nine scaffold groups against MAGE-A11:PCF11; read-out: consensus IC50. The source says:
TR-FRET Assays and High-throughput Screen. Terbium-anti-GST antibody, 1 M Tris pH 7.5 1 M MgCl2 and 1 M DTT were purchased from Invitrogen (Carlsbad, CA), BSA was purchased from Sigma (St. Louis, MO). Dimethyl sulfoxide (DMSO) was purchased from Fisher Scientific (Pittsburgh, PA). Black 384-well low volume plates and 384-well polypropylene compound plates were purchased from Corning Incorporated (Tewksbury, MA). The St. Jude FDA drug and Bioactive library (11,293 chemicals), Drug-like library (10,073 chemicals) and Lead-like library (10,041 chemicals) were custom assembled and purchased from commercial sources including Sigma, Microsource (Gaylordsville, CT), selleckchem (Houston, TX), ChemDiv (San Diego, CA), ChemBridge (San Diego, CA), Enamine (Monmouth Jct., NJ), and Life Chemicals (Niagara-on-the-Lake, ON, Canada). They were arrayed (10 mM in DMSO) in 384-well polypropylene compound plates with columns 1, 2, 13 and 14 empty which were reserved for controls.
The TR-FRET assay buffer with a formula of 50 mM Tris pH 7.5, 20 mM MgCl2, 0.1 mg/ml BSA and 1 mM DTT was freshly prepared before each experiment. All TR-FRET assays were performed in black 384-well plates with 20 μl/well assay volume in the TR-FRET assay buffer at room temperature (approximately 25° C.). All peptides or compounds were solubilized in DMSO. To test the competitive activity of peptides or compounds against the interaction between GST-MAGEA11 MHD and FAM-PCF11_4 peptide, 10 μl/well peptide or compound at specified concentration was dispensed into a black 384-well low volume plate, followed by 5 μl/well FAM-PCF11_4 (800 nM), 5 μl/well Tb-anti-GST (20 nM) and GST-MAGEA11 MHD (20 nM). The assay components in each well was then mixed by shaking the plate on an IKA MTS 2/4 digital microtiter plate shaker (IKA Works; Wilmington, NC, USA) at 900 RPM for 1 minute. The plate was further centrifuged in an Eppendorf 5810 centrifuge with an A-4-62 swing-bucket rotor (Eppendorf AG, Hamburg, Germany) at 201 g (1000 rpm) for 30 seconds. The plate was then incubated for 90 min with a lid to avoid light exposure to the assay components. After incubation, the fluorescent emission signals at 520 nm and 490 nm channels of individual wells were measured with a PHERAstar FS plate reader (BMG Labtech; Durham, NC, USA) by using a 340 nm excitation filter, 100 μs delay time, and 200 μs integration time. The TR-FRET fluorescence emission ratio (TR-FRET signal) for each well was presented as 10 000×520 nm/490 nm, which was used directly for curve fitting, or further converted to % Inhibition based on the respective positive and negative controls. The graphic software GraphPad Prism 4.81 (GraphPad Software; La Jolla, CA, USA) was used to generate curves and derive IC50 values of tested peptides or compounds, if applicable.
TR-FRET inhibitory activity characterization of a panel of PCF11 peptides against the interaction between GST-MAGEA11 MHD and FAM-PCF11_4 was performed as follows. In a 20 μl/well assay volume, dilutions of PCF11_1 to PCF11_8 peptides (concentrations ranged from 3.1 nM to 100 μM for peptides PCF11_4, PCF11_5, PCF11_6 and PCF11_8 in a 1-to-2 dilution pattern for 16 concentration levels, and ranged from 48.9 nM to 100 μM for peptides of PCF11_1, PCF11_2, PCF11_3 and PCF11_7 in a 1-to-2 dilution pattern for 12 concentration levels), 200 nM FAM-PCF11_4, 5 nM Tb-anti-GST and 5 nM GST-MAGEA11 were mixed together and incubated for 90 min before the TR-FRET signal for each well was measured. The final DMSO concentration was 1.1% (v/v). […] The signal of each peptide-treated well (Signalpeptide) was normalized to the positive and negative controls to derive % inhibition of the peptide at a specific concentration with equation 1. Where applicable, the % Inhibition data were fit into a Sigmoidal dose response equation to derive IC50 values.
TR-FRET screen for identifying MAGEA11 small molecule inhibitors was performed as follows.
For orientation: Time-resolved FRET reads energy transfer from a long-lived donor to a nearby acceptor.
As for `CCCN1C(=O)c2ccccc2NC1c1cc(OC)c(OC)c(OC)c1` (stereo not drawn) [SJ000551165-1], the 50% inhibitory concentration (IC50) was 69.9 µM.

For `C=C(C)CSc1nc2cc(-c3ccccc3)sc2c(=O)n1CCN1CCOCC1` [SJ000456069-1], the IC50 came to 0.861 µM.

As for `FC(F)(F)c1cc(-c2ccc3c(NCCCNCc4cccc5c4OCO5)ccnc3c2)cc(C(F)(F)F)c1` [SJ000311272-1], the IC50 amounted to 9.02 µM.

With `Cc1ccc(S(=O)(=O)N2CCN(C3=C(Cl)C(=O)c4ccccc4C3=O)CC2)cc1` [SJ000021282-1], the half-maximal inhibitory concentration (IC50) worked out at 10.4 µM.

For `Fc1c(F)c(F)c(CNCCCNc2ccnc3cc(Cl)ccc23)c(F)c1F` [SJ000520910-1], the IC50 is 69.9 µM.

As to `COc1ccc(F)cc1CNCCCNc1ccnc2cc(Oc3cccc(N(C)C)c3)ccc12` [SJ000311233-1], the IC50 was 5.63 µM.

Regarding `CC(=O)N(C1=C(Cl)C(=O)c2ccccc2C1=O)c1ccc(Br)cc1` [SJ000299699-2], the half-maximal inhibitory concentration (IC50) turned out to be 69.9 µM.

Turning to `Cc1ccc(NC2=C(N)C(=O)c3ccccc3C2=O)cc1` [SJ000562618-1], the 50% inhibitory concentration (IC50) came to 60.6 µM.

With `CCCN1C(=O)c2ccccc2NC1c1ccc(O)c(OC)c1` (stereo not drawn) [SJ000295722-1], the IC50 worked out at 69.9 µM.

As for `CCC(CC)c1ccc2c(NCCCNCc3cccc4c3OCO4)ccnc2c1` [SJ000311268-1], the half-maximal inhibitory concentration (IC50) came to 28.9 µM.

On to `CN(C)CCCNCc1ccc2[nH]c3ccccc3c2c1` [SJ000054243-1], for which the half-maximal inhibitory concentration (IC50) is 69.9 µM.

Take `Cc1ccccc1Nc1nc(N)c2ccccc2n1` [SJ000192476-1]: the 50% inhibitory concentration (IC50) came out at 69.9 µM.

As for `CCCn1c(=O)[nH]c(=O)c2c1nc(-c1cccc(OC)c1)n2CCOC` [SJ000427207-1], the half-inhibitory concentration (IC50) turned out to be 69.9 µM.

For the molecule `COc1ccc(F)cc1CNCCCNc1ccnc2cc(CCc3ccccc3)ccc12` [SJ000311256-1], the 50% inhibitory concentration (IC50) is 37.1 µM.

`C=C(C)Cn1cnc2cc(-c3ccc(Cl)cc3)sc2c1=O` [SJ000456507-1]: the half-maximal inhibitory concentration (IC50) came out at 69.9 µM.

Take `CCn1c2ccccc2c2cc(CNCCc3ccc(Cl)cc3)ccc21` [SJ000112458-1]: the IC50 stood at 69.9 µM.

`Cn1c2ccccc2c2cc(C(=O)N3CCc4nncn4CC3)ccc21` [SJ000307416-1]: the IC50 came to 69.9 µM.

Regarding `O=S(=O)(c1ccccc1)c1nc(-c2ccc(Br)cc2)oc1N1CCOCC1` [SJ000244320-1], the IC50 stood at 8.63 µM.

Regarding `COc1ccc(F)cc1CNCCCNc1ccnc2cc(-c3ccccc3)ccc12` [SJ000311285-1], the IC50 came to 28.2 µM.

As to `COc1ccc(CNCCCNc2ccnc3cc(Cl)ccc23)cc1` [SJ000523059-1], the half-inhibitory concentration (IC50) is 69.9 µM.

`COCCNC(=O)Cn1cnc2cc(-c3ccc(Cl)cc3)sc2c1=O` [SJ000395304-1]: the IC50 turned out to be 69.9 µM.

Consider `COc1cccc(CNCCCNc2ccnc3cc(-c4ccc5c(c4)OCO5)ccc23)c1O` [SJ000311291-1], for which the IC50 is 24.6 µM.

As to `C=CCOc1ccc(-c2nc3c(c(=O)[nH]c(=O)n3Cc3ccccc3)n2C)cc1Br` [SJ000420085-1], the IC50 was 69.9 µM.

`COCCn1c(-c2ccc(SC)cc2)nc2c1c(=O)[nH]c(=O)n2CC(C)C` [SJ000378917-1]: the concentration for half-maximal inhibition (IC50) amounted to 69.9 µM.

With `COc1ccc(-c2cc3ncn(CC(=O)NCc4ccccc4F)c(=O)c3s2)cc1` [SJ000449696-1], the concentration for half-maximal inhibition (IC50) was determined as 69.9 µM.

As to `COc1ccccc1Nc1nc(N)c2ccccc2n1` [SJ000192505-1], the concentration for half-maximal inhibition (IC50) was 69.9 µM.

On to `CSc1ccc(C2Nc3ccccc3C(=O)N2CCCN2CCOCC2)cc1` (stereo not drawn) [SJ000803762-1], for which the concentration for half-maximal inhibition (IC50) is 71.3 µM.

On to `CN(C)c1cccc(Oc2ccc3c(NCCCNCc4cccc5c4OCO5)ccnc3c2)c1` [SJ000311232-1], for which the 50% inhibitory concentration (IC50) came out at 69.9 µM.

With `CCOc1ccc(NC2=C(Cl)C(=O)c3ccccc3C2=O)cc1` [SJ000122936-1], the IC50 came to 69.9 µM.

`CC1CN(c2oc(-c3ccc(F)cc3)nc2C#N)CC(C)O1` (stereo not drawn) [SJ000478453-1]: the IC50 worked out at 69.9 µM.

In the case of `CCCCn1c(=O)[nH]c(=O)c2c1nc(-c1ccc(SC)cc1)n2C` [SJ000382100-1], the half-maximal inhibitory concentration (IC50) was found to be 69.9 µM.

Take `CC(=O)N(C1=C(Cl)C(=O)c2ccccc2C1=O)c1ccc(F)cc1` [SJ000024947-1]: the IC50 turned out to be 69.9 µM.

As for `Fc1cccc(C(F)(F)F)c1CNCCCNc1ccnc2cc(Cl)ccc12` [SJ000521031-1], the IC50 stood at 69.9 µM.

As for `CN(C)c1ccc(C2Nc3ccccc3C(=O)N2CCCN2CCOCC2)cc1` (stereo not drawn) [SJ000803767-1], the IC50 was determined as 71.1 µM.

With `O=C1c2ccccc2NC(c2ccc3c(c2)OCO3)N1Cc1ccccc1` (stereo not drawn) [SJ000288627-1], the IC50 worked out at 69.9 µM.

The assay is the same for the next values; noted with them: PCF11 peptides; read-out: IC50 of PCF11 peptides binding to GST-MAGE-A11 by TR-FRET.
In the case of `CC[C@H](C)[C@H](NC(=O)[C@H](CCC(N)=O)NC(=O)[C@H](Cc1c[nH]cn1)NC(=O)[C@@H](NC(=O)[C@@H](NC(=O)[C@@H](NC(=O)[C@H](CC(C)C)NC(=O)[C@@H](N)Cc1ccccc1)C(C)C)C(C)C)C(C)C)C(=O)N[C@@H](CCCNC(=N)N)C(=O)N[C@@H](CCC(N)=O)C(=O)N[C@@H](CC(C)C)C(=O)N[C@@H](Cc1cccc(C)c1)C(=O)N[C@@H](CCC(N)=O)C(=O)O` [3-methyl-phenylanaline] (H-FLVVVHQIRQL[Phe(3-Me)]Q-OH; N-terminus and C-terminus assumed), the IC50 turned out to be 0.0017 µM.

Staying with this assay, now noted: Table 5, dose response TR-FRET screening of 59 quinoline compounds against MAGE-A11:PCF11; read-out: TR-FRET IC50.
For `CCCN(CCCNc1c2ccc(Cl)cc2nc2ccc(OC)cc12)Cc1ccc2[nH]ccc2c1` [SJ000522732-2], the concentration for half-maximal inhibition (IC50) was greater than 70 µM.

On to `CCCN(CCNc1ccnc2cc(C(F)(F)F)ccc12)Cc1ccc[nH]1` [SJ000361255-1], for which the 50% inhibitory concentration (IC50) is greater than 70 µM.

Regarding `CN(C)c1cccc(Oc2ccc3c(NCCCNCc4ccco4)ccnc3c2)c1` [SJ000311230-1], the IC50 is greater than 70 µM.

On to `Clc1ccc2c(NCCCNCc3ccc[nH]3)ccnc2c1` [SJ000575192-1], for which the IC50 was found to be 22.8 µM.

For the molecule `Clc1cccc(-c2ccc(CNCCCNc3ccnc4cc(Cl)ccc34)o2)c1` [SJ000523069-1], the concentration for half-maximal inhibition (IC50) is greater than 70 µM.

In the case of `c1coc(CNCCCNc2ccnc3cc(-c4cccc5ccccc45)ccc23)c1` [SJ000311274-1], the half-maximal inhibitory concentration (IC50) is greater than 70 µM.

Still in this assay, the particulars now being: Table 8, representative compounds; read-out: TR-FRET IC50.
Consider `COc1ccc(F)cc1CNCCCNc1ccnc2cc(Cc3ccccc3)ccc12` [SJ000311309], for which the concentration for half-maximal inhibition (IC50) came to 18.3 µM.

In the case of `COc1ccc(OC(F)(F)F)cc1CNCCCNc1ccnc2cc(C(F)(F)F)ccc12` [SJ000521063], the 50% inhibitory concentration (IC50) was 69.9 µM.

As to `COc1ccc(F)cc1CNCCCNc1ccnc2cc(-c3ccc(C(C)(C)C)cc3)ccc12` [SJ000311289], the IC50 was 2.04 µM.

As for `CC[C@@]1(O)C(=O)OCc2c1cc1n(c2=O)Cc2cc3ccccc3nc2-1` [SJ000285410], the IC50 is greater than 55.2 µM.

Consider `Cc1cccc(CNCCCNc2ccnc3cc(Cl)ccc23)c1` [SJ000523066], for which the 50% inhibitory concentration (IC50) came out at 69.9 µM.

On to `CCC(CC)c1ccc2c(NCCCNCc3cccc4c3OCO4)ccnc2c1` [SJ000311268], for which the IC50 amounted to 28.9 µM.

On to `COc1ccc(Oc2ccc3c(NCCCNCc4cc(F)ccc4OC)ccnc3c2)cc1` [SJ000311221], for which the half-maximal inhibitory concentration (IC50) stood at 46.5 µM.

`CCc1ccc(OCc2ccccc2C(=O)Nc2ccc3nc(C)cc(N)c3c2)cc1` [SJ000855285]: the 50% inhibitory concentration (IC50) was determined as 9.29 µM.

Take `COc1cccc(CNCCCNc2ccnc3cc(-c4ccc(C(F)(F)F)cc4)ccc23)c1O` [SJ000311279]: the IC50 was determined as 9.52 µM.

For the origin of these results see patent US20240246941A1, “SUBSTITUTED 4-(3-AMINOPROP-1-YL)AMINOQUINOLINE ANALOGS AS MODULATORS OF MELANOMA-ASSOCIATED ANTIGEN 11 UBIQUITIN LIGASE” (ST. JUDE CHILDREN'S RESEARCH HOSPITAL, INC., priority 2020, published 2024).
